IC50 data for 16 compounds are collected here from patent US11160797B2, “Pyridinone derivatives and their use as selective ALK-2 inhibitors” (NOVARTIS AG, priority 2017, dated 2021).

The target of experiment [1] is T1, wild-type ALK2 (aa172-499) (Homo sapiens (Human), UniProt Q04771). Put plainly: ADPGlo biochemical autophosphorylation assay, ALK2. As to conditions: 15 uM ATP. A general note: In ADP-Glo the light output rises with the ADP produced.
The target in experiment [2] is ALK3 (aa198-525) (Homo sapiens (Human), UniProt P36894). The experiment in a line: ADPGlo biochemical autophosphorylation assay, ALK3. Conditions: 15 uM ATP.
In experiment [3] the target is T1, wild-type ALK2 (aa172-499). Put plainly: Caliper biochemical peptide phosphorylation assay, ALK2. As to conditions: Caliper peptide phosphorylation, 15 uM ATP; read-out: ALK2 IC50.
For experiment [4], the target named is ALK2 FOP mutant (aa172-499 R206H) (Homo sapiens (Human), UniProt Q04771, R206H). The experiment in a line: Caliper biochemical peptide phosphorylation assay, ALK2 FOP. Conditions: Caliper peptide phosphorylation, R206H, 15 uM ATP; read-out: ALK2 FOP EPK IC50.
In experiment [5] the target is ALK1 (aa166-493) (Homo sapiens (Human), UniProt P37023). The experiment in a line: Caliper biochemical peptide phosphorylation assay, ALK1. Conditions: 15 uM ATP.
The target in experiment [6] is ALK5 (aa162-503) (Homo sapiens (Human), UniProt P36897). Put plainly: Caliper biochemical peptide phosphorylation assay, ALK5. As to conditions: 15 uM ATP. An excerpt:
For all biochemical assays, human recombinant proteins were expressed in and purified from baculo virus transfected insect cells. The constructs comprised the GS-domain and kinase domain of wild-type ALK2 (aa172-499), ALK2 FOP mutant (aa172-499 R206H), ALK3 (aa198-525), ALK5 (aa162-503) and ALK6 (aa168-495).
A kinase selectivity panel which measures substrate peptide phosphorylation was set-up for wild-type ALK2 (aa172-499), ALK2 FOP mutant (aa172-499 R206H), ALK1 (aa166-493), ALK5 (aa162-503) and ALK6 (aa168-495). The technology used for the described assay is based on the separation and quantification of substrate and product in an electrical field. In the course of the kinase reaction the peptide substrate is phosphorylated by a kinase. […] Due to this difference in charge the phosphorylated und unphosphorylated peptides migrate with different velocities in an electrical field.
In the applied method, this separation takes place inside a chip that contains a complex capillary system for simultaneous analysis of 12 samples (“LabChip EZ Reader 12-sipper chip”, Caliper Technologies Corp., Mountain View, USA). In order to allow the detection and quantification of the peptides in the capillary system, the peptides carry a fluorescent label (fluorescein). With this label the peptides can be quantified by fluorescence intensity through the instruments laser and detection system (LC3000, Caliper Life Sciences).
The assays were performed in 384-well, low volume microtiter assay plates in a final reaction volume of 9 ul. Dose-response curves were generated by incubating 10 nM of each kinase together with 2 uM of the fluorescently labeled substrate peptide 5-Fluo-Ahx-[…]-T-[…]-amid (10 mM stock solution in DMSO) in 50 mM Hepes pH 7.5, 0.02% Tween 20, 0.02% BSA, 1 mM DTT, 10 uM Na3VO4, 10 mM ß-Glycerolphosphate, 1 mM MgCl2, 12 mM MnCl2 (ALK1 and ALK6 7 mM) and 15 uM ATP for 60 min at 30° C. in the presence or absence of compound diluted in DMSO.
Kinase reactions were terminated by adding 15 ul STOP buffer (100 mM HEPES pH 7.5, 5% DMSO, 0.1% Caliper coating reagent, 10 mM EDTA, and 0.015% Brij35.
Plates with terminated kinase reactions were transferred to the Caliper LC3000 workstation (Caliper Technologies Corp., Mountain View, USA) for reading. The relative amount of phosphorylated peptide r, was calculated using the heights of the substrate peak, s, and the product peak, p:r=p/(p+s).
IC50 values for a given antagonist correspond to the compound concentration needed to inhibit half of the maximum signal of the kinase reaction.

The target of experiment [7] is ALK6 (aa168-495) (Homo sapiens (Human), UniProt O00238). The experiment in a line: Caliper biochemical peptide phosphorylation assay, ALK6. Conditions: 15 uM ATP.
Experiment [8] concerns HuH7 cells, BMP response element (BRE) luciferase reporter, BMP6 stimulated. The experiment in a line: BMP signaling reporter gene assay. The class given is cell-based. As to conditions: Homo sapiens, Huh-7; BMP6 100 ng/ml; read-out: MSD HuH7 cell BMP reporter IC50. (Reporter assays use an easily measured gene product as a stand-in for the process of interest.)
Description: A human liver hepatocellular carcinoma cell line (HuH7) stably transfected with a reporter plasmid consisting of the human BMP response element (BRE) from the Id1 promoter fused to a luciferase reporter gene was generated through lentiviral transduction.
Assays were performed in 384-well flat bottom polystyrene microtiter plates (cell culture treated) with sterile lids. The cells were starved through medium exchange in Blasticidine- and FCS-free medium 16 h before the assay. Prior to the assay, cells were detached from the stock flask using trypsin/EDTA and counted. A cell suspension in the same medium without Blasticidin and FCS was prepared. 2×10^4 cells in a total volume of 40 ul were added to each well of a plate already containing serial dilutions of each compound in DMSO (final DMSO concentration 0.5%). […] Assay plates are incubated for another 5 hours at 37° C., 5% CO2 before luciferase levels are measured.
The amount of expressed luciferase is quantified using the Steady-Glo® Luciferase Assay System (Promega #E2520).

Structures are written as SMILES. Bounds are passed on as bounds.

T1 sequence (Q04771 172-499): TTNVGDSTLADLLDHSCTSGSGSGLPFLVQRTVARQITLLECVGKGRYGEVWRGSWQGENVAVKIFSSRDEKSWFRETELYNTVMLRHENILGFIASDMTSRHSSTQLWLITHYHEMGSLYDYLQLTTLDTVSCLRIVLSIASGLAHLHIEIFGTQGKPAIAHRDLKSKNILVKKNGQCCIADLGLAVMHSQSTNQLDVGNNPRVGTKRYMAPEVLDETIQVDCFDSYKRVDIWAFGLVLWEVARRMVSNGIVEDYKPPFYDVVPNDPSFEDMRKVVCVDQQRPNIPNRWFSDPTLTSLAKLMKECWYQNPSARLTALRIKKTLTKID
Sequence of ALK2 FOP mutant (aa172-499 R206H) (Q04771 172-499 R206H): as the sequence (Q04771 172-499) above, with R35H counted along it
Sequence of ALK1 (aa166-493) (P37023 166-493): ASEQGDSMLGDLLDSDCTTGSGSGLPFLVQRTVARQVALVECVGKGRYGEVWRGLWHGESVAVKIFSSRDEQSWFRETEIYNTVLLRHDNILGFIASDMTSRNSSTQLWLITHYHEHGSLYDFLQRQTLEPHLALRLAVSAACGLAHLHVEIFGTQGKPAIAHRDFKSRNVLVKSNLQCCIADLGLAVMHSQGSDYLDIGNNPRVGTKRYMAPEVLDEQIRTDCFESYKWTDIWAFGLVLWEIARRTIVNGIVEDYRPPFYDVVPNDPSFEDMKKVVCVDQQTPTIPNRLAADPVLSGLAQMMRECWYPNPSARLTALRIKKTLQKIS
Sequence of ALK6 (aa168-495) (O00238 168-495): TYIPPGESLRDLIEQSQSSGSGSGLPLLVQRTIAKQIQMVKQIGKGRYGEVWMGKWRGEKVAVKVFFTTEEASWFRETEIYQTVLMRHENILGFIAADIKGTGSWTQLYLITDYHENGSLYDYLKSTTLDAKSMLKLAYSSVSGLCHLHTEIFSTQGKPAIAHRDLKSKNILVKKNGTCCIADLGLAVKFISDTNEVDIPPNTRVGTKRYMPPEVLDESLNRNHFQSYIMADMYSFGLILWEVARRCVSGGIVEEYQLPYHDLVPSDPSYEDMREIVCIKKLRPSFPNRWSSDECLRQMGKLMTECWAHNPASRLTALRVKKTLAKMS
Sequence of ALK5 (aa162-503) (P36897 162-503): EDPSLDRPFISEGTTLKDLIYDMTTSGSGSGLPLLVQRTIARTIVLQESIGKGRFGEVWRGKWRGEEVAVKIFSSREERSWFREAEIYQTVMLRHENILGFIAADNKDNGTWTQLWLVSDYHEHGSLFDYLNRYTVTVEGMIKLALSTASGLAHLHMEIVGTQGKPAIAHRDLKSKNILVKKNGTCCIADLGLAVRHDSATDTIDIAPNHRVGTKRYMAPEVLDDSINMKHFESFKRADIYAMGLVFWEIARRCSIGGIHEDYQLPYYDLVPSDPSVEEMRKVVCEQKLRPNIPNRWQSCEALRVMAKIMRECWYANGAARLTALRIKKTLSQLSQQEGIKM
Sequence of ALK3 (aa198-525) (P36894 198-525): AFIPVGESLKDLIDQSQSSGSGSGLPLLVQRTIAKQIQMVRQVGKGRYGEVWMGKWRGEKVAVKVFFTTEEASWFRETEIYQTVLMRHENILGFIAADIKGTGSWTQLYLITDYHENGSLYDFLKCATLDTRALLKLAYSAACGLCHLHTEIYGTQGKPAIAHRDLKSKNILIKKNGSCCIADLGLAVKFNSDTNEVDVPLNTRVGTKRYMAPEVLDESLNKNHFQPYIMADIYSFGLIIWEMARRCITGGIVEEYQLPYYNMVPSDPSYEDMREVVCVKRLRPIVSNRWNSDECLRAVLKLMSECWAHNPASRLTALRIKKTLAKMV

Turning to `COc1cc(-c2cncc(-c3ccc4c(c3)CC(=O)N4C)c2)cn(C(C)C)c1=O` [Example 2, 5-(1′-Isopropyl-5′-methoxy-6′-oxo-1′,6′-dihydro-[3,3′-bipyridin]-5-yl)-1-methylindolin-2-one], the IC50 stood at 87 nM in experiment [1]; 520 nM in experiment [2]; 80 nM in experiment [3]; 60 nM in experiment [4]; 410 nM in experiment [5]; 610 nM in experiment [6]. In addition, the IC50 in experiment [7] came out at 940 nM; in experiment [8], 50 nM.
For `Cc1cc(-c2cncc(-c3ccc4c(c3)CC(=O)N4C)c2)cn(C(C)C)c1=O` [Example 3, 5-(5-(1-Isopropyl-5-methyl-6-oxo-1,6-dihydropyridin-3-yl)pyridin-3-yl)-1-methylindolin-2-one], the IC50 worked out at 97 nM in experiment [1]; 90 nM in experiment [3]; 70 nM in experiment [4]; 660 nM in experiment [6]; 50 nM in experiment [8].
Take `CCc1cc(-c2cncc(-c3ccc4c(c3)CC(=O)N4C)c2)cn(C(C)C)c1=O` [Example 5, 5-(5′-Ethyl-1′-isopropyl-6′-oxo-1′,6′-dihydro-[3,3′-bipyridin]-5-yl)-1-methylindolin-2-one]: the IC50 in experiment [1] was 140 nM; in experiment [3] it was 160 nM; in experiment [4], 130 nM; in experiment [5], 900 nM; in experiment [6] it was 720 nM; in experiment [8], 60 nM.
Consider `CN1C(=O)Cc2cc(-c3cncc(-c4ccc(=O)n(C5CCC5)c4)c3)ccc21` [Example 6, 5-(1′-Cyclobutyl-6′-oxo-1′,6′-dihydro-[3,3′-bipyridin]-5-yl)-1-methylindolin-2-one], for which the 50% inhibitory concentration (IC50) in experiment [1] was found to be 230 nM; in experiment [2], 3600 nM; in experiment [3], 150 nM; in experiment [4], 180 nM; in experiment [5], 1700 nM; in experiment [6], 5300 nM. The IC50 came to 2900 nM in experiment [7] and 660 nM in experiment [8].
Take `CN1C(=O)Cc2cc(-c3cncc(-c4ccc(=O)n(C5CCCC5)c4)c3)ccc21` [Example 8, 5-(1′-cyclopentyl-6′-oxo-1′,6′-dihydro-[3,3′-bipyridin]-5-yl)-1-methylindolin-2-one]: the IC50 in experiment [1] was determined as 200 nM; in experiment [2], 2400 nM; in experiment [3], 170 nM; in experiment [4] it was 120 nM; in experiment [5], 1500 nM; in experiment [6], 9600 nM. Further, the figures for the IC50 in experiment [7] and in experiment [8] were 5300 nM and 150 nM, respectively.
For the compound `CCn1cc(-c2cncc(-c3ccc4c(c3)CC(=O)N4C)c2)ccc1=O` [Example 9, 5-(1′-ethyl-6′-oxo-1′,6′-dihydro-[3,3′-bipyridin]-5-yl)-1-methylindolin-2-one], the IC50 in experiment [1] was 490 nM; in experiment [3] it was 460 nM; in experiment [4], 400 nM; in experiment [6] it was greater than 10000 nM; in experiment [8], 540 nM.
As to `CN1C(=O)Cc2cc(-c3cncc(-c4ccc(=O)n(C5CC5)c4)c3)ccc21` [Example 10, 5-(1′-cyclopropyl-6′-oxo-1′,6′-dihydro-[3,3′-bipyridin]-5-yl)-1-methylindolin-2-one], the IC50 in experiment [1] is 710 nM; in experiment [3] it was 410 nM; in experiment [4], 390 nM; in experiment [5], 2900 nM; in experiment [6], greater than 10000 nM; in experiment [8], 730 nM.
On to `CC(C)Cn1cc(-c2cncc(-c3ccc4c(c3)CC(=O)N4C)c2)ccc1=O` [Example 14, 5-(1′-isobutyl-6′-oxo-1′,6′-dihydro-[3,3′-bipyridin]-5-yl)-1-methylindolin-2-one], for which the IC50 in experiment [1] is 740 nM; in experiment [3] it was 480 nM; in experiment [4] it was 510 nM; in experiment [5] it was 4600 nM; in experiment [6], 9100 nM; in experiment [8], 680 nM.
Consider `CCN1C(=O)Cc2cc(-c3cncc(-c4ccc(=O)n(C(C)C)c4)c3)ccc21` [Example 20, 1-Ethyl-5-(1′-isopropyl-6′-oxo-1′,6′-dihydro-[3,3′-bipyridin]-5-yl)indolin-2-one], for which the half-maximal inhibitory concentration (IC50) in experiment [1] came out at 110 nM; in experiment [3] it was 90 nM; in experiment [4], 90 nM; in experiment [6], 2500 nM; in experiment [8], 140 nM.
Turning to `CC(C)n1cc(-c2cncc(-c3cc4c(cc3F)N(C)C(=O)C4)c2)ccc1=O` [Example 31], the IC50 in experiment [1] is 120 nM; in experiment [3], 100 nM; in experiment [4], 90 nM; in experiment [5], 770 nM; in experiment [6], 5300 nM; in experiment [8] it was 130 nM.
With `CC1C(=O)Nc2cc(-c3cncc(-c4ccc(=O)n(C(C)C)c4)c3)ccc21` (centres unmarked) [Example 33, 6-(1′-isopropyl-6′-oxo-1′,6′-dihydro-[3,3′-bipyridin]-5-yl)-3-methylindolin-2-one], the IC50 in experiment [1] is 180 nM; in experiment [3] it was 170 nM; in experiment [4], 150 nM; in experiment [5], 760 nM; in experiment [6], 2700 nM; in experiment [8], 330 nM.
With `CC(C)n1cc(-c2cncc(-c3ccc4c(c3)CC(=O)N4)c2)ccc1=O` [Example 34, 5-(5-(1-Isopropyl-6-oxo-1,6-dihydropyridin-3-yl)pyridin-3-yl)indolin-2-one], the IC50 in experiment [1] amounted to 300 nM; in experiment [3], 180 nM; in experiment [4], 170 nM; in experiment [5], 1100 nM; in experiment [6], 3400 nM; in experiment [8], 190 nM.
As to `Cc1cc(-c2cncc(-c3ccc(=O)n(C(C)C)c3)c2)cc2c1N(C)C(=O)C2` [Example 35, 5-(1′-isopropyl-6′-oxo-1′,6′-dihydro-[3,3′-bipyridin]-5-yl)-1,7-dimethylindolin-2-one], the IC50 in experiment [1] came out at 110 nM; in experiment [3], 100 nM; in experiment [4], 91 nM; in experiment [5] it was 630 nM; in experiment [6], 5700 nM; in experiment [8], 140 nM.
With `CC(C)n1cc(-c2cncc(-c3ccc4c(c3)CCCC(=O)N4C)c2)ccc1=O` [Example 39, 7-(1′-isopropyl-6′-oxo-1′,6′-dihydro-[3,3′-bipyridin]-5-yl)-1-methyl-4,5-dihydro-1H-benzo[b]azepin-2(3H)-one], the half-inhibitory concentration (IC50) in experiment [1] was determined as 89 nM; in experiment [3], 70 nM; in experiment [4], 60 nM; in experiment [5] it was 350 nM; in experiment [6], 1400 nM; in experiment [8], 110 nM.
On to `CCN1c2ccc(-c3cncc(-c4ccc(=O)n(C(C)C)c4)c3)cc2CS1(=O)=O` [Example 49, 5′-(1-ethyl-2,2-dioxido-1,3-dihydrobenzo[c]isothiazol-5-yl)-1-isopropyl-[3,3′-bipyridin]-6(1H)-one], for which the IC50 stood at 130 nM in experiment [1]; 670 nM in experiment [2]; 140 nM in experiment [3]; 130 nM in experiment [4]; 570 nM in experiment [5]; 2900 nM in experiment [6]. Besides, the IC50 in experiment [7] stood at 1100 nM.
On to `CC(C)n1cc(-c2cncc(-c3ccc4c(c3)CS(=O)(=O)N4CC3CCC3)c2)ccc1=O` [Example 51, 5′-(1-(cyclobutylmethyl)-2,2-dioxido-1,3-dihydrobenzo[c]isothiazol-5-yl)-1-isopropyl-[3,3′-bipyridin]-6(1H)-one], for which the half-inhibitory concentration (IC50) came out at 160 nM in experiment [1]; 880 nM in experiment [2]; 160 nM in experiment [3]; 150 nM in experiment [4]; 780 nM in experiment [5]; 2700 nM in experiment [6]. Moreover, the IC50 in experiment [7] turned out to be 1500 nM.

By IC50 is commonly meant the concentration that inhibits the measured activity by half.
